Values after ≈ are worked out from the molar mass of the structure shown.
Key:
Test in all cases: MIC, agar dilution
Type in all cases: cell-based
[1] = system: S. aureus UBMS 88-5 (tetM); conditions: S. aureus UBMS 88-5 (tetM)
[2] = system: S. aureus UBMS 88-4 (Sensitive); conditions: S. aureus UBMS 88-4 (Sensitive)
[3] = system: E. faecalis ATCC 29212; conditions: E. faecalis ATCC 29212
[4] = system: S. aureus UBMS 90-1 (tetM); conditions: S. aureus UBMS 90-1 (tetM)
[5] = system: E. faecalis 12201; conditions: E. faecalis 12201
[6] = system: E. coli UBMS 88-2 (Sensitive); conditions: E. coli UBMS 88-2 (Sensitive)
[7] = system: E. coli ATCC 25922; conditions: E. coli ATCC 25922
[8] = system: S. haemolyticus AVAH 88-3; conditions: S. haemolyticus AVAH 88-3
[9] = system: S. aureus Smith (Sensitive); conditions: S. aureus Smith (Sensitive)
[10] = system: S. aureus ATCC 29213 (Sensitive); conditions: S. aureus ATCC 29213 (Sensitive)
[11] = system: E. coli UBMS 89-2 (Sensitive); conditions: E. coli UBMS 89-2 (Sensitive)
[12] = system: S. aureus UBMS 88-7 (tetK); conditions: S. aureus UBMS 88-7 (tetK)
[13] = system: S. aureus UBMS 90-3 (Sensitive); conditions: S. aureus UBMS 90-3 (Sensitive)
[14] = system: E. coli UBMS 88-1 (tetB); conditions: E. coli UBMS 88-1 (tetB)
[15] = system: S. aureus IVES 2943 (meth. resistant); conditions: S. aureus IVES 2943 (meth. resistant)
[16] = system: S. aureus IVES 1983 (meth. resistant); conditions: S. aureus IVES 1983 (meth. resistant)
[17] = system: S. aureus UBMS 90-2 (tetM); conditions: S. aureus UBMS 90-2 (tetM)

CN(C)c1cc(NC(=O)c2ccccc2)c(O)c2c1CC1CC3C(N(C)C)C(O)=C(C(N)=O)C(=O)C3(O)C(O)=C1C2=O (stereo not shown) [P, 9-(Benzoylamino)-7-(dimethylamino)-6-demethyl-6-deoxytetracycline]
MIC [1]: 4 µg/mL (≈ 6.94 µM)
MIC [2]: 4 µg/mL (≈ 6.94 µM)
MIC [3]: 4 µg/mL (≈ 6.94 µM)
MIC [4]: 4 µg/mL (≈ 6.94 µM)
MIC [5]: 8 µg/mL (≈ 13.9 µM)
MIC [6]: >32 µg/mL
MIC [7]: >32 µg/mL
MIC [8]: 4 µg/mL (≈ 6.94 µM)
MIC [9]: 1 µg/mL (≈ 1.73 µM)
MIC [10]: 0.25 µg/mL (≈ 0.434 µM)
MIC [11]: >32 µg/mL
MIC [12]: 8 µg/mL (≈ 13.9 µM)
MIC [13]: 1 µg/mL (≈ 1.73 µM)
MIC [14]: >32 µg/mL
MIC [15]: 16 µg/mL (≈ 27.7 µM)
MIC [16]: 8 µg/mL (≈ 13.9 µM)
MIC [17]: 4 µg/mL (≈ 6.94 µM)

COc1ccc(C(=O)Nc2cc(N(C)C)c3c(c2O)C(=O)C2=C(O)C4(O)C(=O)C(C(N)=O)=C(O)C(N(C)C)C4CC2C3)cc1 (stereo not shown) [Q, 7-(Dimethylamino)-9-[(4-methoxybenzoyl)amino)-6-demethyl-6-deoxytetracycline]
MIC [1]: 8 µg/mL (≈ 13.2 µM)
MIC [2]: 8 µg/mL (≈ 13.2 µM)
MIC [3]: 8 µg/mL (≈ 13.2 µM)
MIC [4]: 8 µg/mL (≈ 13.2 µM)
MIC [5]: 8 µg/mL (≈ 13.2 µM)
MIC [6]: >32 µg/mL
MIC [7]: >32 µg/mL
MIC [8]: 8 µg/mL (≈ 13.2 µM)
MIC [9]: 4 µg/mL (≈ 6.59 µM)
MIC [10]: 1 µg/mL (≈ 1.65 µM)
MIC [11]: >32 µg/mL
MIC [12]: 16 µg/mL (≈ 26.4 µM)
MIC [13]: 4 µg/mL (≈ 6.59 µM)
MIC [14]: >32 µg/mL
MIC [15]: 8 µg/mL (≈ 13.2 µM)
MIC [16]: 16 µg/mL (≈ 26.4 µM)
MIC [17]: 8 µg/mL (≈ 13.2 µM)

Cc1ccccc1C(=O)Nc1cc(N(C)C)c2c(c1O)C(=O)C1=C(O)C3(O)C(=O)C(C(N)=O)=C(O)C(N(C)C)C3CC1C2 (stereo not shown) [R, 7-(Dimethylamino)-9-((2-methylbenzoyl)amino]-6-demethyl-6-deoxytetracycline]
MIC [1]: 4 µg/mL (≈ 6.77 µM)
MIC [2]: 2 µg/mL (≈ 3.39 µM)
MIC [3]: 2 µg/mL (≈ 3.39 µM)
MIC [4]: 8 µg/mL (≈ 13.5 µM)
MIC [5]: 8 µg/mL (≈ 13.5 µM)
MIC [6]: >32 µg/mL
MIC [7]: >32 µg/mL
MIC [8]: 8 µg/mL (≈ 13.5 µM)
MIC [9]: 1 µg/mL (≈ 1.69 µM)
MIC [10]: 0.12 µg/mL (≈ 0.203 µM)
MIC [11]: >32 µg/mL
MIC [12]: 4 µg/mL (≈ 6.77 µM)
MIC [13]: 1 µg/mL (≈ 1.69 µM)
MIC [14]: 2 µg/mL (≈ 3.39 µM)
MIC [15]: 4 µg/mL (≈ 6.77 µM)
MIC [16]: 8 µg/mL (≈ 13.5 µM)
MIC [17]: 2 µg/mL (≈ 3.39 µM)

CN(C)c1cc(NC(=O)c2ccccc2F)c(O)c2c1CC1CC3C(N(C)C)C(O)=C(C(N)=O)C(=O)C3(O)C(O)=C1C2=O (stereo not shown) [S, 7-(Dimethylamino)-9-[(2-fluorobenzoyl)amino]-6-demethyl-6-deoxytetracycline]
MIC [1]: 2 µg/mL (≈ 3.36 µM)
MIC [2]: 2 µg/mL (≈ 3.36 µM)
MIC [3]: 4 µg/mL (≈ 6.73 µM)
MIC [4]: 4 µg/mL (≈ 6.73 µM)
MIC [5]: 4 µg/mL (≈ 6.73 µM)
MIC [6]: >32 µg/mL
MIC [7]: >32 µg/mL
MIC [8]: 4 µg/mL (≈ 6.73 µM)
MIC [9]: 1 µg/mL (≈ 1.68 µM)
MIC [10]: 0.5 µg/mL (≈ 0.841 µM)
MIC [11]: >32 µg/mL
MIC [12]: 8 µg/mL (≈ 13.5 µM)
MIC [13]: 1 µg/mL (≈ 1.68 µM)
MIC [14]: >32 µg/mL
MIC [15]: 8 µg/mL (≈ 13.5 µM)
MIC [16]: 4 µg/mL (≈ 6.73 µM)
MIC [17]: 1 µg/mL (≈ 1.68 µM)

CN(C)c1cc(NC(=O)c2c(F)c(F)c(F)c(F)c2F)c(O)c2c1CC1CC3C(N(C)C)C(O)=C(C(N)=O)C(=O)C3(O)C(O)=C1C2=O (stereo not shown) [T, 7-(Dimethylamino)-9-((pentafluorobenzoyl)amino]-6-demethyl-6-deoxytetracycline]
MIC [1]: 4 µg/mL (≈ 6 µM)
MIC [2]: 4 µg/mL (≈ 6 µM)
MIC [3]: 4 µg/mL (≈ 6 µM)
MIC [4]: 4 µg/mL (≈ 6 µM)
MIC [5]: 4 µg/mL (≈ 6 µM)
MIC [6]: >32 µg/mL
MIC [7]: >32 µg/mL
MIC [8]: 4 µg/mL (≈ 6 µM)
MIC [9]: 4 µg/mL (≈ 6 µM)
MIC [10]: 1 µg/mL (≈ 1.5 µM)
MIC [11]: >32 µg/mL
MIC [12]: 4 µg/mL (≈ 6 µM)
MIC [13]: 2 µg/mL (≈ 3 µM)
MIC [14]: >32 µg/mL
MIC [15]: 4 µg/mL (≈ 6 µM)
MIC [16]: 4 µg/mL (≈ 6 µM)
MIC [17]: 2 µg/mL (≈ 3 µM)
